Assay type in all cases: biochemical
The target of assay [1] is T1, GFAT-beta (Homo sapiens, UniProt O94808).
T1 construct: made in house; host or cells: SF9 insect cells (sonicated, centrifuged cell extract)
In words: GFAT inhibition, microtiter plate glucosamine 6-phosphate assay (GFAT-beta). The protocol:
For measurement of […], the GFAT enzyme reaction and analysis of the product are preferably carried out directly in a microtiter plate. The preferred reaction volume of 100 μl consists of the substrates glutamine (10 mM) and fructose 6-phosphate (10 mM), phosphate buffered saline (PBS) pH 7.4, ethylenediaminetetraacetic acid (EDTA) (5 mM), dithiothreitol (DTT) (1 mM), and the GFAT enzyme preparation or tissue extract (0.25-50 μl). The incubation mixture is added to the plate, the plate sealed, and placed floating on a 37° C. water bath for 1 hour. Additional incubation mixture is kept on ice to add to standard and control samples. After incubation, non-incubated control and glucosamine 6-phosphate standards of 2.5 to 30 nmoles along with the cold incubator mixture are added to the appropriate wells in the plate. The glucosamine 6-phosphate produced in the incubation mixtures is acetylated by first adding acetic anhydride 1.5% in acetone (10 μl), followed by potassium tetraborate 200 mM (50 μl). The plate is sealed, shaken for 2 minutes on a microshaker, and placed on an 80° C. water bath for 25 minutes. […] The plate is then placed on a 37° C. water bath for 20 minutes and the OD determined at 500-610 nm, preferably 585 nm.
The reaction mixture is made including enough for standard curve samples and kept on ice. […] The OD is determined at 585 nm. […]

For a further assay, the target named is T2, GFAT-alpha (Homo sapiens, UniProt Q06210).
T2 construct: made in house; host or cells: SF9 insect cells (sonicated, centrifuged cell extract)
In words: GFAT inhibition, microtiter plate glucosamine 6-phosphate assay (GFAT-alpha). Conditions: enzyme expressed in SF9 insect cells; 60 minutes at 37° C.; OD 585 nm; read-out: IC50 (concentration inhibiting 50% of maximum stimulation), GFAT-alpha. The protocol: For measurement of […], the GFAT enzyme reaction and analysis of the product are preferably carried out directly in a microtiter plate. The preferred reaction volume of 100 μl consists of the substrates glutamine (10 mM) and fructose 6-phosphate (10 mM), phosphate buffered saline (PBS) pH 7.4, ethylenediaminetetraacetic acid (EDTA) (5 mM), dithiothreitol (DTT) (1 mM), and the GFAT enzyme preparation or tissue extract (0.25-50 μl). The incubation mixture is added to the plate, the plate sealed, and placed floating on a 37° C. water bath for 1 hour. Additional incubation mixture is kept on ice to add to standard and control samples. After incubation, non-incubated control and glucosamine 6-phosphate standards of 2.5 to 30 nmoles along with the cold incubator mixture are added to the appropriate wells in the plate. The glucosamine 6-phosphate produced in the incubation mixtures is acetylated by first adding acetic anhydride 1.5% in acetone (10 μl), followed by potassium tetraborate 200 mM (50 μl). The plate is sealed, shaken for 2 minutes on a microshaker, and placed on an 80° C. water bath for 25 minutes. The plate is cooled by placing it on ice for 5 minutes and then Ehrlich's reagent is added (130 μl) (2 g Ehrlich's reagent+0.3 ml water+2.2 ml concentrated hydrochloric acid+17.4 ml acetic acid which is diluted 1:2 in acetic acid before use). The plate is then placed on a 37° C. water bath for 20 minutes and the OD determined at 500-610 nm, preferably 585 nm.
The reaction mixture is made including enough for standard curve samples and kept on ice. The reaction is started by adding the incubation reagents to the microtiter plate, sealing the plate, and placing the plate in a water bath at 37° C. for 1 hr. Standard curve samples are added to the plate, 2.5 to 30 nmoles/well/10 μl, and the cold mix added to control and standard curve samples. Glucosamine 6-phosphate is acetylated with acetic anhydride 1.5%/acetone 10 μl+potassium tetraborate 200 mM 50 μl, by sealing the plate, shaking for 2 minutes and placing on an 80° C. water bath for 25 minutes, then cooling on ice for 5 minutes. Diluted Ehrlich's reagent 130 μl is added and the plate placed on a 37° C. water bath for 20 minutes. The OD is determined at 585 nm.
Stimulation of GFAT activity. […] For most testing, a 60-minute incubation at 37° C. is carried out in 96 well microtiter plates. To give the best heat transfer the plates are sealed with a Costar plate sealer and floated on a 37° C. water bath. Air bubbles are removed from the bottom of the plate to ensure proper heat transfer to all wells. The 100 μl reaction volume consists of glutamine 10 mM, fructose 6-phosphate 10 mM, PBS 1×, EDTA 5 mM DTT 1 mM, and the enzyme preparation. […]

Assay [2] deals with T1, GFAT-beta. The assay is described as follows: Substrate Km determination, Lineweaver-Burk plot (GFAT-beta). Conditions: extracts from transfected SF9 insect cells, other substrate at saturating levels. The protocol: FIG. 3 illustrates the effect of varying concentrations of the substrates glutamine and fructose 6-phosphate on the enzyme activity of GFAT-alpha and GFAT-beta. FIG. 3A is a graph illustrating incubation with 10 μl glutamine 200 mM+10 μl fructose 6-phosphate 3.125, 6.25, 12.5, 25, 50, 100, and 200 mM. FIG. 3B is a graph illustrating incubation with 10 μl fructose 6-phosphate 200 mM+10 μl glutamine 3.125, 6.25, 12.5, 25, 50, 100, and 200 mM. 10 μl of GFAT-alpha and 5 μl of GFAT-beta extracts from transfected SF9 insect cells are incubated with 1) 10 μl glutamine 200 mM+10 μl fructose 6-phosphate 3.125, 6.25, 12.5, 25, 50, 100, and 200 mM, and 2) 10 μl fructose 6-phosphate 200 mM+10 μl glutamine 3.125, 6.25, 12.5, 25, 50, 100, and 200 mM in an incubation media containing 10 μl PBS 10×, 10 μl EDTA 50 mM, 10 μl, DTT 10 mM and water to 100 μl. The plate is sealed with a Costar plate sealer and incubated for 60 minutes at 37° C. by floating on a water bath. Additional incubation mixture is kept on ice to add to standard and control samples. […] After a 20-minute incubation at 37° C., the OD is determined for each well at 585 nm. […]
FIG. 3C is a table illustrating the Km values of the substrates for the GFAT-alpha and GFAT-beta enzymes calculated from the data generated in FIGS. 3A and 3B. […]

T2 sequence (Q06210 1-681 isoform Q06210-2 I57T): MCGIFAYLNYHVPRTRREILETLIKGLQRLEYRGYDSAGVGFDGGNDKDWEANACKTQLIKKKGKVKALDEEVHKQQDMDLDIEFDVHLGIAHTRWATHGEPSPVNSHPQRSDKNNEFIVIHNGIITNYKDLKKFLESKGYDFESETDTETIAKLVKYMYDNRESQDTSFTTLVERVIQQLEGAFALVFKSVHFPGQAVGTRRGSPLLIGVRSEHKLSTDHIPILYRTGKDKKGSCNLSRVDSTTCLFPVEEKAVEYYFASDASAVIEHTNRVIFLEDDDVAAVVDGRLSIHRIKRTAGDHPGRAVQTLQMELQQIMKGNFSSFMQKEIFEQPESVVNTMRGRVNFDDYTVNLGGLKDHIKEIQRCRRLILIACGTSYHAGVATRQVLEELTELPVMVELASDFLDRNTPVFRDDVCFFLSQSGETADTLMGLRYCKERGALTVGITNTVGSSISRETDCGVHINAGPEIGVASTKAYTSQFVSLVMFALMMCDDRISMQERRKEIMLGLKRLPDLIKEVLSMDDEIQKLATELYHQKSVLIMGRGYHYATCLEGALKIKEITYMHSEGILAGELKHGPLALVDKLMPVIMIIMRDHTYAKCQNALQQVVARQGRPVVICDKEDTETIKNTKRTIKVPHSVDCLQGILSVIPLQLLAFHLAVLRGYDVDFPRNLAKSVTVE
T1 sequence (O94808 whole entry): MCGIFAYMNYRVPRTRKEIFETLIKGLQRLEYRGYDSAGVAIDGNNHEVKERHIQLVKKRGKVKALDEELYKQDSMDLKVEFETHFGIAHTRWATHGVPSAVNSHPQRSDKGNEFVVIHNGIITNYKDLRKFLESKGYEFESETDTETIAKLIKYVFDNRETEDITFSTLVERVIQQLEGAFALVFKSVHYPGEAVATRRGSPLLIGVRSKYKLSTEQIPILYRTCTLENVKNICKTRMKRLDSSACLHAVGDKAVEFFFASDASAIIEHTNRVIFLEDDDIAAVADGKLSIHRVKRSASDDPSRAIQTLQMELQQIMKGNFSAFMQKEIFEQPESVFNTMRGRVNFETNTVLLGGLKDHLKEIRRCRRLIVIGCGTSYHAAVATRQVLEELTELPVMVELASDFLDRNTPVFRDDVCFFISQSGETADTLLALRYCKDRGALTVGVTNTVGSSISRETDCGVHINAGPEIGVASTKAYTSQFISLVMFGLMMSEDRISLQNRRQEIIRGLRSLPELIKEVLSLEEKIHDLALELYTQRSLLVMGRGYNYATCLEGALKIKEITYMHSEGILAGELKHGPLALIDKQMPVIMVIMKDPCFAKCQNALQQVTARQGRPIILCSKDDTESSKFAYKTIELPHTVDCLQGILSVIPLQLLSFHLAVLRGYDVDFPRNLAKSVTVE

Take “uridine-diphosphate-N-acetylglucosamine [UDP-N-acetylglucosamine]”: the IC50 was 100 µM on GFAT-beta [1] (enzyme expressed in SF9 insect cells, 60 minutes at 37° C., OD 585 nm, read-out: IC50 (concentration inhibiting 50% of maximum stimulation), GFAT-beta) and 8 µM at GFAT-alpha. For the same compound, the “times as much required to inhibit GFAT-beta compared with GFAT-alpha” value at GFAT-beta [1] (ratio of IC50 GFAT-beta to GFAT-alpha) is reported as “more than 12 times”.
Turning to `[N-]=[N+]=CC(=O)CC[C@H](N)C(=O)O` [DON, 6-diazo-5-oxo-L-norleucine], the IC50 at GFAT-alpha worked out at 18 µM.
Same read-out and setting: to `COC(=O)/C=C/C(=O)NC[C@H](N)C(=O)O` [FMDP, N3-(-4-methoxyfumaroyl)-L-2,3-diaminopropanoic acid] belongs 4 µM.
Turning to `NC(=O)CC[C@H](N)C(=O)O` [glutamine], the Km (commonly the concentration of substrate that gives half-maximal velocity) at GFAT-beta [2] amounted to 1.99 mM.
Still for that read-out and setting: to `O=C(CO)[C@@H](O)[C@H](O)[C@H](O)COP(=O)(O)O` [fructose 6-phosphate] belongs 6.8 mM.
As for `N[C@@H](CNC(=O)CBr)C(=O)O` [N3-(bromoacetyl)-L-2,3-diaminopropanoic acid], at GFAT-alpha, the IC50 is 0.38 µM.

Source of the values: US20050032145A1, “Methods for measuring activity of glutamine:fructose 6-phosphate amidotransferase and activity of inhibitors thereof” (priority 2002, published 2005).
